Results on two compounds are retold here after patent US20170290806A1, “PCSK9 Inhibitors and Methods of Use Thereof” (Temple University-Of The Commonwealth System of Higher …, priority 2014, published 2017).

Test [1] addresses T1, PCSK9/LDLR interaction (Homo sapiens, UniProt Q8NBP7). The test can be described thus: LDLR upregulation in HepG2 cells. It is filed as cell-based. On the set-up: the human full-length PCSK9 was cloned; expressed in transfected cells. The following applies: for up-regulation of endogenously expressed LDLR: compounds 1-50 uM; for EC50: endogenously expressed LDLR, transfected with PCSK9, compounds 1-50 uM, 43 hours, read-out: EC50 of up-regulation of LDLR. The protocol: HepG2 cells were seeded into 96 well plates in a MEM containing 10% Fetal Bovine Serum media and incubated overnight at 37° C. Cells were transiently transfected with PCSK9 cDNA constructs using the Lipofectamine-LTX. Compounds (1-50 uM) were added, followed by additional 43 hours of incubation. The cells were lysed and analyzed for LDLR expression and cell viability determined as described in FIG. 8.
(§1) Considering the difficulty in assaying the LDLR/PCSK9 binding, the approach was to develop and implement an innovative recombinant cell based assay where the full-length PCSK9 and the LDLR genes are expressed into HEK-293 cells, and allowed to decrease the LDLR level by PCSK9 (FIG. 7). Compounds that prevent the LDLR degradation without preventing the auto-processing and secretion of the PCSK9 were selected as potential candidates and were further evaluated using additional cell based assay using endogenously expressed LDLR in liver cells (HepG2 cells).
The compounds SBC-110,424, SBC-110, 433, and SBC-115,076 were also validated for their ability to up-regulate the endogenously expressed LDLR in HepG2 cells.

Test [2] deals with T1, PCSK9/LDLR interaction. Briefly: Recombinant cell based assay: LDLR upregulation in HEK293 cells transfected with LDLR and PCSK9. On the set-up: the human full-length PCSK9 was cloned; expressed in transfected cells; host or cells: HEK-293T. The following applies: for increase in the LDLR (intracellular recombinant LDLR upregulation) as comparable to control / EC50: HEK293 cells transfected with LDLR and PCSK9; for increase in the LDLR (intracellular recombinant LDLR upregulation) as comparable to control: compounds 1-50 μM; for EC50: compounds 1-50 uM, 43 hours incubation, read-out: EC50 of LDLR up-regulation; for IC50s (increase in the LDLR): PCSK9/LDLR HEK293 recombinant cell based assay. On the procedure: HEK-293T cells were seeded into 96 well plates in a DMEM containing 10% Fetal Bovine Serum media and incubated overnight at 37° C. Cells were transiently transfected with LDLR and PCSK9 cDNA constructs using the Lipofectamine-LTX. Compounds (1-50 uM) were added, followed by additional 43 hours of incubation. The cells were lysed and analyzed for LDLR expression and cell viability determined as described in FIG. 7.
HEK-293T cells were seeded into 96 well plates in a DMEM containing 10% Fetal Bovine Serum media and incubated overnight at 37° C. Cells were transiently transfected with LDLR and PCSK9 cDNA constructs using the Lipofectamine-LTX. Compounds (1-50 uM) were added, followed by additional 43 hours of incubation. The cells were lysed and analyzed for LDLR expression and cell viability determined as described in FIG. 8. […] Compound SBC-130,022 has no effect in up-regulating LDLR.
as §1
Preparation of constructs: the human full-length PCSK9 was cloned. The cDNA encoding the PCSK9 sequence with and without a FLAG epitope tag (DYKDDDDK) were cloned by PCR and subcloned into mammalian expression vector containing the cytomegalovirus promoter-enhancer (pCMV-PCSK9-FLAG) (pCDNA3.1/PCSK9). For LDLR, the coding sequence was constructed without tag in mammalian expression vector (pCMV-LDLR) (pCDNA3.1/LDLR). The constructs were confirmed by sequence analysis
The pCDNA3.1/PCSK9, and the pCDNA3.1/LDLR constructs were used to transiently transfect mammalian cells. The human embryonic kidney (HEK)-293 cells were seeded (1×10^5 cells/well) in 24-well plates. Expression plasmids ([…]) were transiently transfected into HEK-293 cells with lipofectamine (Invitrogen) according to the manufacturer's protocol. Twenty four to forty eight hours after transfection, cells were harvested. The cells were then be lysed. Both cell lysate and supernatant were subjected to SDS-PAGE and immunoblot analysis using an anti-PCSK9 or LDLR antibody.
240 compounds identified from the virtual screen in a cell based assay for their potential to upregulate the LDLR in the presence of PCSK9 were tested as described above. Initial screening was done using 50 μM of the compounds. Each compound was added to the cell media in triplicates, and intrecellar LDLR was detected as described above. Each set of compounds were screened at least twice with all appropriate controls. Compounds that upregulate the LDLR were selected for further evaluation.
From the initial screening, 24 compounds were identified as potential hits. Hits confirmation was repeated in triplicates using 50 μM.

SMILES strings stand for the structures. Entries after “also recorded” stand apart in the source; their conditions may differ.

T1 sequence (Q8NBP7 153-692): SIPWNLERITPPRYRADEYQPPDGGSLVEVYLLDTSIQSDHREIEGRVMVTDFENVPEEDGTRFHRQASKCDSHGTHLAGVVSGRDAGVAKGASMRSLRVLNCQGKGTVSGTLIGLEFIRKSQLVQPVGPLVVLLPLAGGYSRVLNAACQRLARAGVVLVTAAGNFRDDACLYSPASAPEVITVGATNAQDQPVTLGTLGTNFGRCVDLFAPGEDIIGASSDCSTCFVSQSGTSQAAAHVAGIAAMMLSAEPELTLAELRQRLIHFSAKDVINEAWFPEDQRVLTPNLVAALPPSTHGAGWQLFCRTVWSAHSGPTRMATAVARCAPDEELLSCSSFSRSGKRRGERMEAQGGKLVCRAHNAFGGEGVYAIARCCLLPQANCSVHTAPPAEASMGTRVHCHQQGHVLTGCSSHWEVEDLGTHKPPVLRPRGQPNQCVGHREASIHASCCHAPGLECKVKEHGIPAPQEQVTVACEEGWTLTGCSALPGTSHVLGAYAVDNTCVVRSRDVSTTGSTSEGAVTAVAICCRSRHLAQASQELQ
T1 sequence (Q8NBP7 31-152 partner limits assumed): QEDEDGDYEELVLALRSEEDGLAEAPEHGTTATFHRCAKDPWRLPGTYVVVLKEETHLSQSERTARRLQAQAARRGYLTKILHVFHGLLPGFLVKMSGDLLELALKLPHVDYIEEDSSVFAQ

Consider `CC(C)(C(=O)NCc1ccco1)n1cc(NC(=O)c2cccnc2)cn1` [SBC-110,424], for which, on PCSK9/LDLR interaction [1], the “up-regulation of endogenously expressed LDLR” value is “concentration dependent up-regulation” and the EC50 was found to be 2000 nM. Moreover, on PCSK9/LDLR interaction [2], the “increase in the LDLR (intracellular recombinant LDLR upregulation) as comparable to control” value was “concentration dependent increase; also recorded: significant potency”, the EC50 worked out at 3500 nM and the “IC50s (increase in the LDLR)” value is reported as “low uM range”.
Take `Cc1cc(C(=O)C2=C(O)C(=O)N(CCCN3CCOCC3)C2c2ccncc2)ccc1OCc1ccccc1` (stereo not shown) [SBC-115,076]: at PCSK9/LDLR interaction [1], the “up-regulation of endogenously expressed LDLR” value is on record as “concentration dependent up-regulation” and the 50% effective concentration (EC50) turned out to be 430 nM. For the same compound, on PCSK9/LDLR interaction [2], the “increase in the LDLR (intracellular recombinant LDLR upregulation) as comparable to control” value is given as “concentration dependent increase”, the EC50 was determined as 3100 nM and the “IC50s (increase in the LDLR)” value is on record as “low uM range”.
